ChEMBL document CHEMBL1201862, “PubChem BioAssay data set” (2004)
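The compound was tested at five concentrations on cells cultured in 96-well plates, with a 48-hour exposure period. GI50 marks 50% less growth.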 The source made the active and inactive calls. No stated cut-off is given here; in the data, active = GI50 up to about 1.1 µM and inactive = higher.

Key:
Test in all cases: growth of human tumour cells (NCI), 48 h
[1] = test system: HCT-15
[2] = test system: MOLT-4
[3] = test system: SNB-19
[4] = test system: HT-29
[5] = test system: NCI/ADR-RES
[6] = test system: CCRF-CEM
[7] = test system: UO-31
[8] = test system: MCF7
[9] = test system: SK-MEL-28
[10] = test system: M14
[11] = test system: SF-268
[12] = test system: SK-MEL-5
[13] = test system: UACC-62
[14] = test system: ACHN
[15] = test system: OVCAR-8
[16] = test system: SR
[17] = test system: TK-10
[18] = test system: NCI-H23
[19] = test system: KM12
[20] = test system: U-251
[21] = test system: BT-549
[22] = test system: SF-539
[23] = test system: Hs-578T
[24] = test system: 786-0
[25] = test system: NCI-H226
[26] = test system: MDA-MB-231
[27] = test system: SW-620
[28] = test system: HOP-92
[29] = test system: SK-OV-3
[30] = test system: MDA-MB-435
[31] = test system: NCI-H522
[32] = test system: K562
[33] = test system: A498
[34] = test system: PC-3
[35] = test system: EKVX
[36] = test system: MDA-N
[37] = test system: RPMI-8226
[38] = test system: SF-295
[39] = test system: RXF 393
[40] = test system: UACC-257
[41] = test system: HCT-116
[42] = test system: T47D
[43] = test system: HCC 2998
[44] = test system: A549
[45] = test system: OVCAR-4
[46] = test system: COLO 205
[47] = test system: OVCAR-5
[48] = test system: SNB-75
[49] = test system: OVCAR-3
[50] = test system: NCI-H460
[51] = test system: DU-145
[52] = test system: Malme-3M
[53] = test system: IGROV-1
[54] = test system: HOP-62
[55] = test system: SN12C
[56] = test system: HL-60
[57] = test system: SK-MEL-2
[58] = test system: CAKI-1

With O=C(Nn1c(-c2ccccc2)nc2ccccc2c1=O)c1ccc(O)cc1 the GI50 [1] was > 100 µM, the GI50 [2] was > 100 µM (inactive) and the GI50 [3] was > 100 µM (inactive). The GI50 [4] was > 100 µM (inactive), the GI50 [5] was > 100 µM (inactive) and the GI50 [6] was > 100 µM (inactive). The GI50 [7] was > 100 µM (inactive), the GI50 [8] was > 100 µM (inactive) and the GI50 [9] was > 100 µM (inactive). The GI50 [10] was > 100 µM (inactive), the GI50 [11] was > 100 µM (inactive) and the GI50 [12] was > 100 µM (inactive). The GI50 [13] was > 100 µM (inactive), the GI50 [14] was > 100 µM (inactive) and the GI50 [15] was > 100 µM (inactive). The GI50 [16] was > 100 µM (inactive), the GI50 [17] was > 100 µM (inactive) and the GI50 [18] was > 100 µM (inactive). For the same molecule, the GI50 [19] was > 100 µM (inactive), the GI50 [20] was > 100 µM (inactive) and the GI50 [21] was > 100 µM (inactive). For the same molecule, the GI50 [22] was > 100 µM (inactive), the GI50 [23] was > 100 µM (inactive) and the GI50 [24] was > 100 µM (inactive). The GI50 [25] was > 100 µM (inactive), the GI50 [26] was > 100 µM (inactive) and the GI50 [27] was > 100 µM (inactive). For the same molecule, the GI50 [28] was > 100 µM (inactive), the GI50 [29] was > 100 µM (inactive) and the GI50 [30] was > 100 µM (inactive). The GI50 [31] was > 100 µM (inactive), the GI50 [32] was > 100 µM (inactive) and the GI50 [33] was > 100 µM (inactive). For the same molecule, the GI50 [34] was > 100 µM (inactive), the GI50 [35] was 61 µM (inactive) and the GI50 [36] was > 100 µM (inactive). For the same molecule, the GI50 [37] was > 100 µM (inactive), the GI50 [38] was > 100 µM (inactive) and the GI50 [39] was > 100 µM (inactive). For the same molecule, the GI50 [40] was > 100 µM (inactive), the GI50 [41] was > 100 µM (inactive) and the GI50 [42] was > 100 µM (inactive). For the same molecule, the GI50 [43] was > 100 µM (inactive), the GI50 [44] was > 100 µM (inactive) and the GI50 [45] was > 100 µM (inactive). The GI50 [46] was > 100 µM (inactive), the GI50 [47] was > 100 µM (inactive) and the GI50 [48] was > 100 µM (inactive). The GI50 [49] was > 100 µM (inactive), the GI50 [50] was > 100 µM (inactive) and the GI50 [51] was > 100 µM (inactive). The GI50 [52] was > 100 µM (inactive), the GI50 [53] was > 100 µM (inactive) and the GI50 [54] was > 100 µM (inactive). The GI50 [55] was > 100 µM (inactive) and the GI50 [56] was > 100 µM (inactive).

Cc1cc(S(=O)(=O)N/C(=C(\C#N)C(=O)c2ccccc2)[n+]2ccc(N(C)C)cc2)c([S-])cc1Cl was tested, and the GI50 [1] was > 100 µM, the GI50 [2] was 60.1 µM (inactive) and the GI50 [3] was > 100 µM (inactive). For the same molecule, the GI50 [4] was > 100 µM (inactive), the GI50 [5] was > 100 µM (inactive) and the GI50 [6] was > 100 µM (inactive). The GI50 [7] was > 100 µM (inactive), the GI50 [8] was > 100 µM (inactive) and the GI50 [57] was 83 µM (inactive). The GI50 [9] was > 100 µM (inactive), the GI50 [10] was > 100 µM (inactive) and the GI50 [11] was > 100 µM (inactive). For the same molecule, the GI50 [12] was > 100 µM (inactive), the GI50 [13] was > 100 µM (inactive) and the GI50 [14] was > 100 µM (inactive). The GI50 [15] was > 100 µM (inactive), the GI50 [16] was 64.9 µM (inactive) and the GI50 [17] was 53.6 µM (inactive). The GI50 [58] was > 100 µM (inactive), the GI50 [18] was > 100 µM (inactive) and the GI50 [19] was > 100 µM (inactive). The GI50 [20] was > 100 µM (inactive), the GI50 [21] was > 100 µM (inactive) and the GI50 [22] was > 100 µM (inactive). For the same molecule, the GI50 [23] was > 100 µM (inactive), the GI50 [24] was > 100 µM (inactive) and the GI50 [25] was > 100 µM (inactive). For the same molecule, the GI50 [26] was > 100 µM (inactive), the GI50 [28] was 0.33 µM (active) and the GI50 [29] was > 100 µM (inactive). For the same molecule, the GI50 [30] was > 100 µM (inactive), the GI50 [31] was 35.6 µM (inactive) and the GI50 [32] was > 100 µM (inactive). The GI50 [33] was 32.4 µM (inactive), the GI50 [34] was > 100 µM (inactive) and the GI50 [35] was 32 µM (inactive). The GI50 [36] was > 100 µM (inactive), the GI50 [37] was > 100 µM (inactive) and the GI50 [38] was > 100 µM (inactive). For the same molecule, the GI50 [39] was > 100 µM (inactive), the GI50 [40] was > 100 µM (inactive) and the GI50 [41] was 37.2 µM (inactive). For the same molecule, the GI50 [42] was > 100 µM (inactive), the GI50 [44] was > 100 µM (inactive) and the GI50 [45] was 69.8 µM (inactive). The GI50 [46] was > 100 µM (inactive), the GI50 [47] was > 100 µM (inactive) and the GI50 [49] was > 100 µM (inactive). For the same molecule, the GI50 [50] was > 100 µM (inactive), the GI50 [51] was > 10 µM (inactive) and the GI50 [52] was 20.9 µM (inactive). The GI50 [53] was 88.3 µM (inactive), the GI50 [54] was > 100 µM (inactive) and the GI50 [55] was > 100 µM (inactive). The GI50 [56] was > 100 µM (inactive).
